≈ marks a conversion by molar mass, not a printed value.

As a reminder, the MIC is the lowest concentration that inhibits growth of the organism.

The subject of the first assay is M. catarrhalis A894. Nature of the assay: Minimal inhibitory concentration (MIC), microdilution method in cation-adjusted Mueller-Hinton Broth (CLSI M7-A7). The format is cell-based. Particulars: Moraxella catarrhalis, strain A894. How it is done: Minimal inhibitory concentrations (MICs; mg/1) were determined in cation-adjusted Mueller-Hinton Broth by a microdilution method following the description given in “Methods for Dilution Antimicrobial Susceptibility Tests for Bacteria that Grow Aerobically”, Approved standard, 7th ed., Clinical and Laboratory Standards Institute (CLSI) Document M7-A7, Wayne, Pa., USA, 2006.
(In general: In broth dilution the organism is exposed to a series of concentrations in liquid medium.)
`O=C1CSc2ccc(N3C[C@@H](CCCN[C@H]4Cn5c(=O)ccc6ncc(F)c4c65)OC3=O)nc2N1` [Example 142, (R)-3-fluoro-4-{3-[(R)-2-oxo-3-(3-oxo-3,4-dihydro-2H-pyrido[3,2-b][1,4]thiazin-6-yl)-oxazolidin-5-yl]-propylamino}-4,5-dihydro-pyrrolo[3,2,1-de][1,5]naphthyridin-7-one] registered an MIC of at most 0.031 µg/mL.
Still for that read-out and setting: the value for `O=C1CSc2ccc(N3C[C@H](CCCN[C@H]4Cn5c(=O)ccc6ncc(F)c4c65)OC3=O)nc2N1` [Example 143, (R)-3-fluoro-4-{3-[(S)-2-oxo-3-(3-oxo-3,4-dihydro-2H-pyrido[3,2-b][1,4]thiazin-6-yl)-oxazolidin-5-yl]-propylamino}-4,5-dihydro-pyrrolo[3,2,1-de][1,5]naphthyridin-7-one] was at most 0.031 µg/mL; that for `O=C1COc2ccc(N3C[C@H](CCCN[C@H]4Cn5c(=O)ccc6ncc(F)c4c65)OC3=O)nc2N1` [Example 144, (R)-3-fluoro-4-{3-[(S)-2-oxo-3-(3-oxo-3,4-dihydro-2H-pyrido[3,2-b][1,4]oxazin-6-yl)-oxazolidin-5-yl]-propylamino}-4,5-dihydro-pyrrolo[3,2,1-de][1,5]naphthyridin-7-one] was at most 0.031 µg/mL; that for `O=C1CSc2ccc(N3C[C@@H](CCCN[C@@H]4Cn5c(=O)ccc6ncc(F)c4c65)OC3=O)cc2N1` [Example 145, (S)-3-fluoro-4-{3-[(R)-2-oxo-3-(3-oxo-3,4-dihydro-2H-benzo[1,4]thiazin-6-yl)-oxazolidin-5-yl]-propylamino}-4,5-dihydro-pyrrolo[3,2,1-de][1,5]naphthyridin-7-one] was at most 0.031 µg/mL.
Same read-out and setting: the value for `O=C1COc2ccc(N3C[C@@H](CCCN[C@@H]4Cn5c(=O)ccc6ncc(F)c4c65)OC3=O)cc2N1` [Example 146, (S)-3-fluoro-4-{3-[(R)-2-oxo-3-(3-oxo-3,4-dihydro-2H-benzo[1,4]oxazin-6-yl)-oxazolidin-5-yl]-propylamino}-4,5-dihydro-pyrrolo[3,2,1-de][1,5]naphthyridin-7-one] was at most 0.031 µg/mL; that for `O=C1CSc2ccc(N3C[C@@H](CCCN[C@@H]4Cn5c(=O)ccc6ncc(F)c4c65)OC3=O)nc2N1` [Example 147, (S)-3-fluoro-4-{3-[(R)-2-oxo-3-(3-oxo-3,4-dihydro-2H-pyrido[3,2-b][1,4]thiazin-6-yl)-oxazolidin-5-yl]-propylamino}-4,5-dihydro-pyrrolo[3,2,1-de][1,5]naphthyridin-7-one] was at most 0.031 µg/mL.
Turning to `O=C1CSc2ccc(N3C[C@H](CCCN[C@@H]4Cn5c(=O)ccc6ncc(F)c4c65)OC3=O)cc2N1` [Example 148, (S)-3-fluoro-4-{3-[(S)-2-oxo-3-(3-oxo-3,4-dihydro-2H-benzo[1,4]thiazin-6-yl)-oxazolidin-5-yl]-propylamino}-4,5-dihydro-pyrrolo[3,2,1-de][1,5]naphthyridin-7-one], the MIC is at most 0.031 µg/mL.
On the same count and under the same terms, the value for `O=C1COc2ccc(N3C[C@H](CCCN[C@@H]4Cn5c(=O)ccc6ncc(F)c4c65)OC3=O)cc2N1` [Example 149, (S)-3-fluoro-4-{3-[(S)-2-oxo-3-(3-oxo-3,4-dihydro-2H-benzo[1,4]oxazin-6-yl)-oxazolidin-5-yl]-propylamino}-4,5-dihydro-pyrrolo[3,2,1-de][1,5]naphthyridin-7-one] was at most 0.031 µg/mL.
Same read-out and setting: the value for `O=C1CSc2ccc(N3C[C@H](CCCN[C@@H]4Cn5c(=O)ccc6ncc(F)c4c65)OC3=O)nc2N1` [Example 150, (S)-3-fluoro-4-{3-[(S)-2-oxo-3-(3-oxo-3,4-dihydro-2H-pyrido[3,2-b][1,4]thiazin-6-yl)-oxazolidin-5-yl]-propylamino}-4,5-dihydro-pyrrolo[3,2,1-de][1,5]naphthyridin-7-one] was at most 0.031 µg/mL; that for `O=C1COc2ccc(N3C[C@H](CCCN[C@@H]4Cn5c(=O)ccc6ncc(F)c4c65)OC3=O)nc2N1` [Example 151, (S)-3-fluoro-4-{3-[(S)-2-oxo-3-(3-oxo-3,4-dihydro-2H-pyrido[3,2-b][1,4]oxazin-6-yl)-oxazolidin-5-yl]-propylamino}-4,5-dihydro-pyrrolo[3,2,1-de][1,5]naphthyridin-7-one] was at most 0.031 µg/mL.
In turn, `O=C1COc2ccc(N3C[C@H](CCN[C@H]4Cn5c(=O)ccc6cccc4c65)OC3=O)cc2N1` [Example 157, (R)-1-{2-[(S)-2-oxo-3-(3-oxo-3,4-dihydro-2H-benzo[1,4]oxazin-6-yl)-oxazolidin-5-yl]-ethylamino}-1,2-dihydro-pyrrolo[3,2,1-ij]quinolin-4-one] returned an MIC of 2 µg/mL (≈ 4.48 µM).
The same measure, in the same setting: the value for `O=C1CSc2ccc(N3C[C@@H](CCN[C@H]4Cn5c(=O)ccc6cccc4c65)OC3=O)cc2N1` [Example 158, (R)-1-{2-[(R)-2-oxo-3-(3-oxo-3,4-dihydro-2H-benzo[1,4]thiazin-6-yl)-oxazolidin-5-yl]-ethylamino}-1,2-dihydro-pyrrolo[3,2,1-ij]quinolin-4-one] was at most 0.031 µg/mL; that for `O=C1CSc2ccc(N3C[C@H](CCCN[C@@H]4CN5C(=O)CNc6ccc(F)c4c65)OC3=O)cc2N1` [Example 160, (S)-7-fluoro-6-{3-[(S)-2-oxo-3-(3-oxo-3,4-dihydro-2H-benzo[1,4]thiazin-6-yl)-oxazolidin-5-yl]-propylamino}-1,2,5,6-tetrahydro-pyrrolo[1,2,3-de]quinoxalin-3-one] was at most 0.031 µg/mL.
Still for that read-out and setting: the figure for `O=C1CSc2ccc(N3C[C@@H](CCCN[C@H]4CN5C(=O)CNc6ccc(F)c4c65)OC3=O)nc2N1` [Example 171, (R)-7-fluoro-6-{3-[(R)-2-oxo-3-(3-oxo-3,4-dihydro-2H-pyrido[3,2-b][1,4]thiazin-6-yl)-oxazolidin-5-yl]-propylamino}-1,2,5,6-tetrahydro-pyrrolo[1,2,3-de]quinoxalin-3-one] is at most 0.031 µg/mL; for `O=C1CSc2ccc(N3C[C@H](CCNC[C@]4(O)Cn5c(=O)ccc6nccc4c65)OC3=O)cc2N1` [Example 173, (S)-4-hydroxy-4-({2-[(S)-2-oxo-3-(3-oxo-3,4-dihydro-2H-benzo[1,4]thiazin-6-yl)-oxazolidin-5-yl]-ethylamino}-methyl)-4,5-dihydro-pyrrolo[3,2,1-de][1,5]naphthyridin-7-one] it is 0.125 µg/mL (≈ 0.253 µM).
The same measure, in the same setting: the figure for `O=C1COc2ccc(N3C[C@H](CCCN[C@@H]4Cn5c(=O)ccc6ccc(F)c4c65)OC3=O)nc2N1` [Example 189, (S)-9-fluoro-1-{3-[(S)-2-oxo-3-(3-oxo-3,4-dihydro-2H-pyrido[3,2-b][1,4]oxazin-6-yl)-oxazolidin-5-yl]-propylamino}-1,2-dihydro-pyrrolo[3,2,1-ij]quinolin-4-one] is at most 0.031 µg/mL; for `O=C1COc2ccc(N3C[C@@H](CCCN[C@@H]4Cn5c(=O)ccc6ccc(F)c4c65)OC3=O)nc2N1` [Example 190, (S)-9-fluoro-1-{3-[(R)-2-oxo-3-(3-oxo-3,4-dihydro-2H-pyrido[3,2-b][1,4]oxazin-6-yl)-oxazolidin-5-yl]-propylamino}-1,2-dihydro-pyrrolo[3,2,1-ij]quinolin-4-one] it is at most 0.031 µg/mL.
`O=C1CSc2ccc(N3C[C@@H](CCCN[C@@H]4Cn5c(=O)ccc6ccc(F)c4c65)OC3=O)nc2N1` [Example 192, (S)-9-fluoro-1-{3-[(R)-2-oxo-3-(3-oxo-3,4-dihydro-2H-pyrido[3,2-b][1,4]thiazin-6-yl)-oxazolidin-5-yl]-propylamino}-1,2-dihydro-pyrrolo[3,2,1-ij]quinolin-4-one] registered an MIC of at most 0.031 µg/mL.
The same measure, in the same setting: the value for `O=C1COc2ccc(N3C[C@H](CCCN[C@H]4Cn5c(=O)ccc6ccc(F)c4c65)OC3=O)nc2N1` [Example 193, (R)-9-fluoro-1-{3-[(S)-2-oxo-3-(3-oxo-3,4-dihydro-2H-pyrido[3,2-b][1,4]oxazin-6-yl)-oxazolidin-5-yl]-propylamino}-1,2-dihydro-pyrrolo[3,2,1-ij]quinolin-4-one] was at most 0.031 µg/mL; that for `O=C1COc2ccc(N3C[C@@H](CCCN[C@H]4Cn5c(=O)ccc6ccc(F)c4c65)OC3=O)nc2N1` [Example 194, (R)-9-fluoro-1-{3-[(R)-2-oxo-3-(3-oxo-3,4-dihydro-2H-pyrido[3,2-b][1,4]oxazin-6-yl)-oxazolidin-5-yl]-propylamino}-1,2-dihydro-pyrrolo[3,2,1-ij]quinolin-4-one] was at most 0.031 µg/mL; that for `O=C1CSc2ccc(N3C[C@H](CCCN[C@H]4Cn5c(=O)ccc6ccc(F)c4c65)OC3=O)nc2N1` [Example 195, (R)-9-fluoro-1-{3-[(S)-2-oxo-3-(3-oxo-3,4-dihydro-2H-pyrido[3,2-b][1,4]thiazin-6-yl)-oxazolidin-5-yl]-propylamino}-1,2-dihydro-pyrrolo[3,2,1-ij]quinolin-4-one] was at most 0.031 µg/mL.
Same read-out and setting: the figure for `O=C1CSc2ccc(N3C[C@@H](CCCN[C@H]4Cn5c(=O)ccc6ccc(F)c4c65)OC3=O)nc2N1` [Example 196, (R)-9-fluoro-1-{3-[(R)-2-oxo-3-(3-oxo-3,4-dihydro-2H-pyrido[3,2-b][1,4]thiazin-6-yl)-oxazolidin-5-yl]-propylamino}-1,2-dihydro-pyrrolo[3,2,1-ij]quinolin-4-one] is at most 0.031 µg/mL.

The same assay, now with this note: strain A894.
`O=C1CSc2ccc(N3C[C@H](CCCN[C@@H]4Cn5c(=O)ccc6ccc(F)c4c65)OC3=O)nc2N1` [Example 191, (S)-9-fluoro-1-{3-[(S)-2-oxo-3-(3-oxo-3,4-dihydro-2H-pyrido[3,2-b][1,4]thiazin-6-yl)-oxazolidin-5-yl]-propylamino}-1,2-dihydro-pyrrolo[3,2,1-U]quinolin-4-one]: the “MIC for M. catarrhalis A894” value is “≦0.031 mg/l”.
On the same count and under the same terms, the value for “(1R,2R)-2-(1-hydroxy-1-methyl-ethyl)-1-{3-[(R)-2-oxo-3-(3-oxo-3,4-dihydro-2H-benzo[1,4]thiazin-6-yl)-oxazolidin-5-yl]-propylamino}-1,2-dihydro-pyrrolo[3,2,1-ij]quinolin-4-one and (1S,2S)-2-(1-hydroxy-1-methyl-ethyl)-1-{3-[(R)-2-oxo-3-(3-oxo-3,4-dihydro-2H-benzo[1,4]thiazin-6-yl)-oxazolidin-5-yl]-propylamino}-1,2-dihydro-pyrrolo[3,2,1-ij]quinolin-4-one [Example 170]” was 0.25 µg/mL.

For the origin of these results see patent US9822114B2, “Tricyclic oxazolidinone antibiotic compounds” (Idorsia Pharmaceuticals Ltd, priority 2008, dated 2017).
